# Test results: article PMC7265341, “Quantifying CDK inhibitor selectivity in live cells” (Nature Communications, 2020)
# How the values were obtained:
# Conditions in all cases: 10µM
# CDK1/Cyclin E1 = CDK1/Cyclin E1 (Homo sapiens, UniProt P06493); experiment: NanoBRET live-cell target engagement, CDK1-NanoLuc/Cyclin E1 in HEK-293; assay type: binding
# CDK2/Cyclin E1 = CDK2/Cyclin E1 (Homo sapiens, UniProt P24941); experiment: NanoBRET live-cell target engagement, CDK2-NanoLuc/Cyclin E1 in HEK-293; assay type: binding
# CDK3/Cyclin E1 = CDK3/Cyclin E1 (Homo sapiens, UniProt Q00526); experiment: NanoBRET live-cell target engagement, CDK3-NanoLuc/Cyclin E1 in HEK-293; assay type: binding
# CDK4/Cyclin D1 = CDK4/Cyclin D1 (Homo sapiens, UniProt P11802); experiment: NanoBRET live-cell target engagement, NanoLuc-CDK4/Cyclin D1 in HEK-293; assay type: binding
# Sequence of CDK4/Cyclin D1 (P11802 whole entry): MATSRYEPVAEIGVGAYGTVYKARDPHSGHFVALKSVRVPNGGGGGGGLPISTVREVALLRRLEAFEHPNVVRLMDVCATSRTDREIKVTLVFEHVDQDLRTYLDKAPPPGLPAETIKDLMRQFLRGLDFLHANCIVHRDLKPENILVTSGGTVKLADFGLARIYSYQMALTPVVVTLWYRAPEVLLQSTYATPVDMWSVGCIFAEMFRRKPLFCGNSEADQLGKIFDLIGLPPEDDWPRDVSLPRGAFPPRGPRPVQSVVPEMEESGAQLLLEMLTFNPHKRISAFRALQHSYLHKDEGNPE
# Sequence of CDK4/Cyclin D1 (P24385 whole entry partner): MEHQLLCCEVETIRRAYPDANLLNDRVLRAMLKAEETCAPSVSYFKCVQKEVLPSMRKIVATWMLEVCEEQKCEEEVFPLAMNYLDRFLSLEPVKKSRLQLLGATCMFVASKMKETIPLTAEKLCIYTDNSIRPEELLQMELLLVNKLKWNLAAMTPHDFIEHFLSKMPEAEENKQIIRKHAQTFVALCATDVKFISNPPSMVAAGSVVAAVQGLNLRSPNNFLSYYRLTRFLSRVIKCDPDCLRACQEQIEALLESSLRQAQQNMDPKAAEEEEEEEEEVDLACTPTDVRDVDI
# CDK5/CDK5R1 = CDK5/CDK5R1 (Homo sapiens, UniProt Q00535); experiment: NanoBRET live-cell target engagement, CDK5-NanoLuc/CDK5R1 in HEK-293; assay type: binding
# CDK6/Cyclin D1 = CDK6/Cyclin D1 (Homo sapiens, UniProt Q00534); experiment: NanoBRET live-cell target engagement, NanoLuc-CDK6/Cyclin D1 in HEK-293; assay type: binding
# CDK7 = CDK7 (Homo sapiens, UniProt P50613); experiment: NanoBRET live-cell target engagement, NanoLuc-CDK7 in HEK-293; assay type: binding
# CDK8/Cyclin C = CDK8/Cyclin C (Homo sapiens, UniProt P49336); experiment: NanoBRET live-cell target engagement, NanoLuc-CDK8/Cyclin C in HEK-293; assay type: binding
# Sequence of CDK8/Cyclin C (P49336 whole entry): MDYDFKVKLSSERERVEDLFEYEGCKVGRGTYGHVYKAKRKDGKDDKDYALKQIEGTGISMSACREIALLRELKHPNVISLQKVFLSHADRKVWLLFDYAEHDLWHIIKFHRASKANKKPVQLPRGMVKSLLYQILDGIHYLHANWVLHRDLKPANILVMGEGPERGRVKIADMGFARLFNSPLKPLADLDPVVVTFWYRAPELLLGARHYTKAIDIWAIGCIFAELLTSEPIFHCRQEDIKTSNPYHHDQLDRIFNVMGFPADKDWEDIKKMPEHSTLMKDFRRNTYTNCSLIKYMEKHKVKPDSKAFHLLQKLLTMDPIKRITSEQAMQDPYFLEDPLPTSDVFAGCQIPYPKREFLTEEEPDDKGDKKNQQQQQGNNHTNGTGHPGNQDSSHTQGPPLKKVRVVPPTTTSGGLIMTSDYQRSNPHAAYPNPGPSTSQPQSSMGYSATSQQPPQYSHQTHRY
# Sequence of CDK8/Cyclin C (P24863 whole entry partner): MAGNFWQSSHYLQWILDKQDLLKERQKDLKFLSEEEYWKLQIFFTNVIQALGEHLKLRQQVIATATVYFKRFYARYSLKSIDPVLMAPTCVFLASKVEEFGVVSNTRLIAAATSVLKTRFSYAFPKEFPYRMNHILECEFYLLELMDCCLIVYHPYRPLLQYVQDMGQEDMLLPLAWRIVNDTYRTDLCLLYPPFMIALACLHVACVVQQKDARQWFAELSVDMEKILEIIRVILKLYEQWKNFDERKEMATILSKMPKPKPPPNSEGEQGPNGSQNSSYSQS
# CDK9/Cyclin K = CDK9/Cyclin K (Homo sapiens, UniProt P50750); experiment: NanoBRET live-cell target engagement, NanoLuc-CDK9/Cyclin K in HEK-293; assay type: binding
# Sequence of CDK9/Cyclin K (P50750 whole entry): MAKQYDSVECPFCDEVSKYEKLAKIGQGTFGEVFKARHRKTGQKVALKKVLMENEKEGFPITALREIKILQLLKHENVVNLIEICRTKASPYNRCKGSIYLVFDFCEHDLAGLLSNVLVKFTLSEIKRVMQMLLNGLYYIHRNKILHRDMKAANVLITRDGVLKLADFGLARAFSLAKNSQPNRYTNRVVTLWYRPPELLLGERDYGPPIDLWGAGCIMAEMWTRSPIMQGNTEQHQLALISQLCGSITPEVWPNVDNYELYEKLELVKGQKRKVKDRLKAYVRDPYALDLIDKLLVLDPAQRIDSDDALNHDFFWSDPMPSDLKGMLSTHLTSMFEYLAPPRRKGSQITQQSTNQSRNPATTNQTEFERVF
# Sequence of CDK9/Cyclin K (O75909 whole entry partner): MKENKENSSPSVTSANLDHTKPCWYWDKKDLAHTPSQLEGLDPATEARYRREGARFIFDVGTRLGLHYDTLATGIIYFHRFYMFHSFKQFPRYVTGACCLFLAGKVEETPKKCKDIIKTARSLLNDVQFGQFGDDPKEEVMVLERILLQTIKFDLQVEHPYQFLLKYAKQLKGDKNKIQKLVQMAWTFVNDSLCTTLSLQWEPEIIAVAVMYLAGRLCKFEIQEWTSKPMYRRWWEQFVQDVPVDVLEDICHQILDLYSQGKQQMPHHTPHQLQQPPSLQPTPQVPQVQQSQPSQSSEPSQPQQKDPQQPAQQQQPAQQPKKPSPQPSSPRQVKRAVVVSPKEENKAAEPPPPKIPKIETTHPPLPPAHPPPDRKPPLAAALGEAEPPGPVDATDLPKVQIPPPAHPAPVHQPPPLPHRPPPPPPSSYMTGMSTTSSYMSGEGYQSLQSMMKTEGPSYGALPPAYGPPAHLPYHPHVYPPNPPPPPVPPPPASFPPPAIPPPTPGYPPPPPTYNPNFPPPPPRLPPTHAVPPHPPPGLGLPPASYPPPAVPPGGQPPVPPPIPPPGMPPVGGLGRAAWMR
# CDK11A/Cyclin L2 = target: T1, CDK11A/Cyclin L2 (Homo sapiens, UniProt Q9UQ88); experiment: NanoBRET live-cell target engagement, CDK11A-NanoLuc/Cyclin L2 in HEK-293; assay type: binding
# T1 sequence (Q9UQ88 1-783): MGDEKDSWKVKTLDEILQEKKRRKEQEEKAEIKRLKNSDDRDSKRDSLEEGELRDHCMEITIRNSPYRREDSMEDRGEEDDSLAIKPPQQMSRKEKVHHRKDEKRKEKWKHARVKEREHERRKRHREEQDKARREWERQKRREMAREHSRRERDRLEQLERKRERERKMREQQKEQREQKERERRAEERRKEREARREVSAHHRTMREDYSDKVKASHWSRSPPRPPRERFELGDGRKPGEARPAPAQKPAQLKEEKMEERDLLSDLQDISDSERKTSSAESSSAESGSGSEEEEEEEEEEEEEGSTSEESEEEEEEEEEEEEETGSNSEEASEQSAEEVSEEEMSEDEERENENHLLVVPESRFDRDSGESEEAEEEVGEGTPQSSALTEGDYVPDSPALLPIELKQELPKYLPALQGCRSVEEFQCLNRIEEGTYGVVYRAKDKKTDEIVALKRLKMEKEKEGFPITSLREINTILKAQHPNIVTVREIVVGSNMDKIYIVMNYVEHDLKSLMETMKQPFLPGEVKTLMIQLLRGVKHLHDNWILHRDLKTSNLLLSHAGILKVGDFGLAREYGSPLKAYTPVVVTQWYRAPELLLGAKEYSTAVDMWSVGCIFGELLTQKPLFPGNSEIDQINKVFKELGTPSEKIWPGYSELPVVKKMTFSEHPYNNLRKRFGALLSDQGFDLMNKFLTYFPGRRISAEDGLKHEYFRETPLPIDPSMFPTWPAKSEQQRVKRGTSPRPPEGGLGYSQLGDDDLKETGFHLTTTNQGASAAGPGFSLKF
# CDK11B/Cyclin L2 = CDK11B/Cyclin L2 (Homo sapiens, UniProt P21127); experiment: NanoBRET live-cell target engagement, CDK11B-NanoLuc/Cyclin L2 in HEK-293; assay type: binding
# Sequence of CDK11B/Cyclin L2 (P21127 1-782 isoform P21127-2): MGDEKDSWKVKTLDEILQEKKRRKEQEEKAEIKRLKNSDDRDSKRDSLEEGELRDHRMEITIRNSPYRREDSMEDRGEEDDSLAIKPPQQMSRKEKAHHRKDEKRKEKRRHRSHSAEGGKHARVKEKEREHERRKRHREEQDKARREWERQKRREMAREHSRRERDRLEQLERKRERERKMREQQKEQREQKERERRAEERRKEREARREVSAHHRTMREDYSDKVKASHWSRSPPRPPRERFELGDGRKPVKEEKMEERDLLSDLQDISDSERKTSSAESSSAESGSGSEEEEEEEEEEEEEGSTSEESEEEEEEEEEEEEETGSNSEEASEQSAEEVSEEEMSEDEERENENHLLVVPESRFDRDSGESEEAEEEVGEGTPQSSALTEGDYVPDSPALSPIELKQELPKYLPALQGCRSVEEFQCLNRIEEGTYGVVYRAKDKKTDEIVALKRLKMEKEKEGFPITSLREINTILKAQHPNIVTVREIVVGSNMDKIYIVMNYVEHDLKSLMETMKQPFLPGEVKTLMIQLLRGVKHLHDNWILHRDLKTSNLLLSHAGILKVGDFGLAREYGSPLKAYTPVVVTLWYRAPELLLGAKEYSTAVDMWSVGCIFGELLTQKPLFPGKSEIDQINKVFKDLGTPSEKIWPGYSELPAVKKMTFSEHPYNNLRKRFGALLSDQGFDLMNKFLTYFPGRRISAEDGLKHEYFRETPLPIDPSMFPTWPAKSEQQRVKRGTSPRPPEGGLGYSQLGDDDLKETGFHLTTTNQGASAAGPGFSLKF
# CDK12/Cyclin K = CDK12/Cyclin K (Homo sapiens, UniProt Q9NYV4); experiment: NanoBRET live-cell target engagement, CDK12-NanoLuc/Cyclin K in HEK-293; assay type: binding
# CDK13/Cyclin K = CDK13/Cyclin K (Homo sapiens, UniProt Q14004); experiment: NanoBRET live-cell target engagement, CDK13-NanoLuc/Cyclin K in HEK-293; assay type: binding
# CDK14/Cyclin Y = CDK14/Cyclin Y (Homo sapiens, UniProt O94921); experiment: NanoBRET live-cell target engagement, CDK14-NanoLuc/Cyclin Y in HEK-293; assay type: binding
# CDK15/Cyclin Y = CDK15/Cyclin Y (Homo sapiens, UniProt Q96Q40); experiment: NanoBRET live-cell target engagement, NanoLuc-CDK15/Cyclin Y in HEK-293; assay type: binding
# CDK16/Cyclin Y = CDK16/Cyclin Y (Homo sapiens, UniProt Q00536); experiment: NanoBRET live-cell target engagement, CDK16-NanoLuc/Cyclin Y in HEK-293; assay type: binding
# CDK17/Cyclin Y = CDK17/Cyclin Y (Homo sapiens, UniProt Q00537); experiment: NanoBRET live-cell target engagement, CDK17-NanoLuc/Cyclin Y in HEK-293; assay type: binding
# Sequence of CDK17/Cyclin Y (Q00537 whole entry): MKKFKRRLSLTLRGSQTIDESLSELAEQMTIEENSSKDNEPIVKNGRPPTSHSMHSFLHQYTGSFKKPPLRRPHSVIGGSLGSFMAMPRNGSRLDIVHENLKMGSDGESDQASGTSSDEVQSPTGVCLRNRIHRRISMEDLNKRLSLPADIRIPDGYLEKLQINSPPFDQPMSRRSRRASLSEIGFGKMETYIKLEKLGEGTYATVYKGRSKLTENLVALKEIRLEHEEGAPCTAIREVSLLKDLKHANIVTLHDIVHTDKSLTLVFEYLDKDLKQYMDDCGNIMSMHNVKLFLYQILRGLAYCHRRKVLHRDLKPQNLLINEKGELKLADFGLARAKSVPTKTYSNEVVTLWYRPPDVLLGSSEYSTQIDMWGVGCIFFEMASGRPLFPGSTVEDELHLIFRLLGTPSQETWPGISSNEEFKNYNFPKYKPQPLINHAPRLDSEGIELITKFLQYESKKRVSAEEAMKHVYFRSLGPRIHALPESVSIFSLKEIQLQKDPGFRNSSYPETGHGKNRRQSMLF
# Sequence of CDK17/Cyclin Y (Q8ND76 whole entry partner): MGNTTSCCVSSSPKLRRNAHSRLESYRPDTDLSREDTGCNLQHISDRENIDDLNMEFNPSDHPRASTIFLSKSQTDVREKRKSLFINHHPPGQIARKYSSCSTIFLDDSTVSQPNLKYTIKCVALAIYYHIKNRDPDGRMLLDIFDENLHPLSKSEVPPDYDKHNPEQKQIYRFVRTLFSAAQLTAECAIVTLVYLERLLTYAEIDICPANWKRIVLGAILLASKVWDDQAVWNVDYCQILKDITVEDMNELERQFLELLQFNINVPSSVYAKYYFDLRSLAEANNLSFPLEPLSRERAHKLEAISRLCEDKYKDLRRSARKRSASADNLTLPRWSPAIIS
# CDK18/Cyclin Y = CDK18/Cyclin Y (Homo sapiens, UniProt Q07002); experiment: NanoBRET live-cell target engagement, CDK18-NanoLuc/Cyclin Y in HEK-293; assay type: binding
# CDK20/Cyclin H = CDK20/Cyclin H (Homo sapiens, UniProt Q8IZL9); experiment: NanoBRET live-cell target engagement, NanoLuc-CDK20/Cyclin H in HEK-293; assay type: binding
# CDK19/Cyclin C = CDK19/Cyclin C (Homo sapiens, UniProt Q9BWU1); experiment: NanoBRET live-cell target engagement, NanoLuc-CDK19/Cyclin C in HEK-293
# Sequence of CDK19/Cyclin C (Q9BWU1 whole entry): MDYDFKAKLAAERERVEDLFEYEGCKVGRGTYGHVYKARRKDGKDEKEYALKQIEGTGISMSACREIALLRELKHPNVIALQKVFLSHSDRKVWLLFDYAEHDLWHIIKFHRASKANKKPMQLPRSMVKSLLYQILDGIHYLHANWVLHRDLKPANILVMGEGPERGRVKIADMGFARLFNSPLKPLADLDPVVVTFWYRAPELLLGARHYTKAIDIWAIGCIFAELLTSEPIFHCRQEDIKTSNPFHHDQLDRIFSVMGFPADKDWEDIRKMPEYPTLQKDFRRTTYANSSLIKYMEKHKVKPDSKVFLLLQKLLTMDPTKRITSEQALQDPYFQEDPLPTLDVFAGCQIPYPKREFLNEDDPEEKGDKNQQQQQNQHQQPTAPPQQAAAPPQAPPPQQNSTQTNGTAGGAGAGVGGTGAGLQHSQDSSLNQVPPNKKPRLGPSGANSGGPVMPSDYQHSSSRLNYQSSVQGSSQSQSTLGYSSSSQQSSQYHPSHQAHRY
# Sequence of CDK19/Cyclin C (P24863 whole entry partner): as the sequence (P24863 whole entry partner) above
# CDK10/Cyclin L2 = CDK10/Cyclin L2 (Homo sapiens, UniProt Q15131); experiment: NanoBRET live-cell target engagement, CDK10-NanoLuc/Cyclin L2 in HEK-293
# Sequence of CDK10/Cyclin L2 (Q15131 whole entry): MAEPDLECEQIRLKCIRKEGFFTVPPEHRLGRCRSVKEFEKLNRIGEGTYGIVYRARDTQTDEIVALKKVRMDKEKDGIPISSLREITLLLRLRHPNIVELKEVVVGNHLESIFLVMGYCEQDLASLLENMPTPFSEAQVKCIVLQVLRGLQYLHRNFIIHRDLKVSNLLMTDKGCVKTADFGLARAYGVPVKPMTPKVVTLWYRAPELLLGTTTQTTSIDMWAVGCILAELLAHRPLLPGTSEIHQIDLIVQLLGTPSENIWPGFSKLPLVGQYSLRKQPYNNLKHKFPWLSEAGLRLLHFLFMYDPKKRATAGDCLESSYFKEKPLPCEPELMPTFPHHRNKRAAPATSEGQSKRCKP
smiles,measurement,setting,value
O=C1NCCc2[nH]c(-c3ccncc3)cc21 [PHA-767491],CDK1/E1 Inhibition at 10µM (%),CDK1/Cyclin E1; average of experiments,20.9%
same,CDK1/E1 Inhibition at 10µM (%),CDK1/Cyclin E1; independent experiment 1,21.6%
same,CDK1/E1 Inhibition at 10µM (%),CDK1/Cyclin E1; independent experiment 2,20.1%
same,CDK2/E1 Inhibition at 10µM (%),CDK2/Cyclin E1; average of experiments,26.7%
same,CDK2/E1 Inhibition at 10µM (%),CDK2/Cyclin E1; independent experiment 1,26.7%
same,CDK2/E1 Inhibition at 10µM (%),CDK2/Cyclin E1; independent experiment 2,26.6%
same,CDK3/E1 Inhibition at 10µM (%),CDK3/Cyclin E1; average of experiments,31.6%
same,CDK3/E1 Inhibition at 10µM (%),CDK3/Cyclin E1; independent experiment 1,30.4%
same,CDK3/E1 Inhibition at 10µM (%),CDK3/Cyclin E1; independent experiment 2,32.8%
same,CDK4/D1 Inhibition at 10µM (%),CDK4/Cyclin D1; average of experiments,21.3%
same,CDK4/D1 Inhibition at 10µM (%),CDK4/Cyclin D1; independent experiment 1,22.1%
same,CDK4/D1 Inhibition at 10µM (%),CDK4/Cyclin D1; independent experiment 2,20.6%
same,CDK5/CDK5R1 Inhibition at 10µM (%),CDK5/CDK5R1; average of experiments,37.1%
same,CDK5/CDK5R1 Inhibition at 10µM (%),CDK5/CDK5R1; independent experiment 1,38.6%
same,CDK5/CDK5R1 Inhibition at 10µM (%),CDK5/CDK5R1; independent experiment 2,35.7%
same,CDK6/D1 Inhibition at 10µM (%),CDK6/Cyclin D1; average of experiments,19.5%
same,CDK6/D1 Inhibition at 10µM (%),CDK6/Cyclin D1; independent experiment 1,12.0%
same,CDK6/D1 Inhibition at 10µM (%),CDK6/Cyclin D1; independent experiment 2,27.0%
same,CDK7 Inhibition at 10µM (%),CDK7; average of experiments,26.3%
same,CDK7 Inhibition at 10µM (%),CDK7; independent experiment 1,26.2%
same,CDK7 Inhibition at 10µM (%),CDK7; independent experiment 2,26.4%
same,CDK8/C Inhibition at 10µM (%),CDK8/Cyclin C; average of experiments,97.7%
same,CDK8/C Inhibition at 10µM (%),CDK8/Cyclin C; independent experiment 1,98.5%
same,CDK8/C Inhibition at 10µM (%),CDK8/Cyclin C; independent experiment 2,96.9%
same,CDK9/K Inhibition at 10µM (%),CDK9/Cyclin K; average of experiments,95.5%
same,CDK9/K Inhibition at 10µM (%),CDK9/Cyclin K; independent experiment 1,96.2%
same,CDK9/K Inhibition at 10µM (%),CDK9/Cyclin K; independent experiment 2,94.7%
same,CDK11a/L2 Inhibition at 10µM (%),CDK11A/Cyclin L2; average of experiments,24.0%
same,CDK11a/L2 Inhibition at 10µM (%),CDK11A/Cyclin L2; independent experiment 1,26.5%
same,CDK11a/L2 Inhibition at 10µM (%),CDK11A/Cyclin L2; independent experiment 2,21.5%
same,CDK11b/L2 Inhibition at 10µM (%),CDK11B/Cyclin L2; average of experiments,42.2%
same,CDK11b/L2 Inhibition at 10µM (%),CDK11B/Cyclin L2; independent experiment 1,43.3%
same,CDK11b/L2 Inhibition at 10µM (%),CDK11B/Cyclin L2; independent experiment 2,41.0%
same,CDK12/K Inhibition at 10µM (%),CDK12/Cyclin K; average of experiments,18.3%
same,CDK12/K Inhibition at 10µM (%),CDK12/Cyclin K; independent experiment 1,19.8%
same,CDK12/K Inhibition at 10µM (%),CDK12/Cyclin K; independent experiment 2,16.8%
same,CDK13/K Inhibition at 10µM (%),CDK13/Cyclin K; average of experiments,11.6%
same,CDK13/K Inhibition at 10µM (%),CDK13/Cyclin K; independent experiment 1,14.1%
same,CDK13/K Inhibition at 10µM (%),CDK13/Cyclin K; independent experiment 2,9.2%
same,CDK14/Y Inhibition at 10µM (%),CDK14/Cyclin Y; average of experiments,13.9%
same,CDK14/Y Inhibition at 10µM (%),CDK14/Cyclin Y; independent experiment 1,16.7%
same,CDK14/Y Inhibition at 10µM (%),CDK14/Cyclin Y; independent experiment 2,11.1%
same,CDK15/Y Inhibition at 10µM (%),CDK15/Cyclin Y; average of experiments,-2.1%
same,CDK15/Y Inhibition at 10µM (%),CDK15/Cyclin Y; independent experiment 1,6.2%
same,CDK15/Y Inhibition at 10µM (%),CDK15/Cyclin Y; independent experiment 2,-10.5%
same,CDK16/Y Inhibition at 10µM (%),CDK16/Cyclin Y; independent experiment 1,25.1%
same,CDK16/Y Inhibition at 10µM (%),CDK16/Cyclin Y; independent experiment 2,16.6%
same,CDK17/Y Inhibition at 10µM (%),CDK17/Cyclin Y; average of experiments,24.8%
same,CDK17/Y Inhibition at 10µM (%),CDK17/Cyclin Y; independent experiment 1,31.6%
same,CDK17/Y Inhibition at 10µM (%),CDK17/Cyclin Y; independent experiment 2,18.1%
same,CDK18/Y Inhibition at 10µM (%),CDK18/Cyclin Y; average of experiments,28.3%
same,CDK18/Y Inhibition at 10µM (%),CDK18/Cyclin Y; independent experiment 1,21.8%
same,CDK18/Y Inhibition at 10µM (%),CDK18/Cyclin Y; independent experiment 2,34.7%
same,CDK20/H Inhibition at 10µM (%),CDK20/Cyclin H; independent experiment 1,1.2%
same,CDK20/H Inhibition at 10µM (%),CDK20/Cyclin H; independent experiment 2,0.755%
same,CDK19/C Inhibition at 10µM (%),CDK19/Cyclin C; average of experiments,90.8%
same,CDK19/C Inhibition at 10µM (%),CDK19/Cyclin C; independent experiment 1,91.1%
same,CDK19/C Inhibition at 10µM (%),CDK19/Cyclin C; independent experiment 2,90.5%
same,CDK10/L2 Inhibition at 10µM (%),CDK10/Cyclin L2; average of experiments,11.0%
same,CDK10/L2 Inhibition at 10µM (%),CDK10/Cyclin L2; independent experiment 1,18.5%
same,CDK10/L2 Inhibition at 10µM (%),CDK10/Cyclin L2; independent experiment 2,3.5%
